This is an account of results in PubChem BioAssay (NCI).

Assay in all cases: NCI tumour cell line growth inhibition, 48 h
The test system of experiment [1] is LOX IMVI melanoma.
The test system of experiment [2] is SF-539 CNS.
Experiment [3] has as its system A498 renal.
Experiment [4] relates to NCI-H23 lung.
Experiment [5] relates to SF-268 CNS.
For experiment [6], the system named is HCC-2998 colon.
The subject of experiment [7] is NCI-H226 lung.
The test system of experiment [8] is NCI-H460 lung.
Experiment [9] deals with CCRF-CEM leukemia.
The subject of experiment [10] is MALME-3M melanoma.

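How tested: cells in 96-well plates exposed to compound for 48 hours at five concentrations. At the GI50, growth is halved. Definition used: TGI = concentration required for complete inhibition of growth.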

For the molecule `CS(=O)(=O)Nc1cc(-c2ccc3ncnc(Nc4ccc5c(cnn5Cc5ccc(F)cc5)c4)c3c2)cnc1Cl`, the GI50 in experiment [1] was 1.18 µM; in [2], 1.5 µM; in [3], 1.33 µM; in experiment [4] it was 1.43 µM; in experiment [5], 0.819 µM; in [6], 1.41 µM. The GI50 in experiment [7] was 2.18 µM; in [8], 2.8 µM; in experiment [9], 0.822 µM; in [10] it was 0.441 µM. For the same molecule, the TGI was 3.27 µM in experiment [1]; 5.29 µM in experiment [2]; 3.4 µM in [3]; 5.43 µM in experiment [4]; 4.51 µM in experiment [5]; 3.17 µM in experiment [6]. The TGI in [7] was 11 µM; in experiment [8], 13.3 µM; in [9], over 100 µM; in experiment [10] it was 2.92 µM.
For the molecule `CCc1c[nH]c2ncnc(N3CC[C@@](N)(CNC(=O)c4ccc(F)cc4F)C3)c12`, the GI50 in [1] is 31.1 µM; in [2] it was 20.4 µM; in experiment [3], 16.4 µM; in experiment [4] it was 26.4 µM; in [5], 38 µM; in experiment [6], 50.7 µM. The GI50 is 22 µM in experiment [7], 35 µM in [8], 28.3 µM in experiment [9] and 33.4 µM in [10]. Further, the TGI is over 100 µM in experiment [1]; over 100 µM in [2]; 53.4 µM in experiment [3]; over 100 µM in experiment [4]; over 100 µM in [5]; over 100 µM in [6]. Further, the TGI is over 100 µM in experiment [7], over 100 µM in experiment [8], over 96.4 µM in [9] and over 91.2 µM in experiment [10].
As for `COc1cc2cc(Oc3ccc(NC(=O)c4ccc(Cl)c(C(F)(F)F)c4)cc3)c(C)nc2cc1OC`, the GI50 in experiment [1] is 7.59 µM; in experiment [2], 41.3 µM; in experiment [3], 2.42 µM; in experiment [4] it was 9.73 µM; in experiment [5] it was 37.2 µM; in experiment [6], 41.7 µM. The GI50 in experiment [7] was 19.6 µM; in [8] it was 11.5 µM; in experiment [9], 7.56 µM; in experiment [10], 28.6 µM. In addition, the TGI in [1] is over 100 µM; in experiment [2] it was over 100 µM; in experiment [3] it was 86.3 µM; in [4] it was over 100 µM; in [5], over 100 µM; in experiment [6], over 100 µM. Besides, the TGI was over 100 µM in experiment [7], over 100 µM in experiment [8], over 100 µM in experiment [9] and 95.1 µM in experiment [10].
